# Source: patent US20240117005A1, “NOVEL BICYCLIC PEPTIDES” (THE COUNCIL OF THE QUEENSLAND INSTITUTE OF MEDICAL RESEARCH, priority 2021, published 2024)
# Entries after “also recorded” stand apart in the source; their conditions may differ. No end group written: not given here. *: point of attachment. Myristyl = CCCCCCCCCCCCCC*
# Key:
# [1] = tested on: metastatic initiating cells (MICs) from stage IV metastatic cancer patients; assay: Pre-clinical treatment of MICs from patient liquid biopsies; assay type: cell-based, human; conditions: cancer cells from NSCLC, TNBC and melanoma patients
# From the text: Mesenchymal MICs were isolated from TNBC, lung cancer and melanoma patient liquid biopsies (scored for RECIST v1.1 for immunotherapy/therapeutic resistance or responsiveness (Complete Response, Partial Response or Progressive Disease) and pre-clinically screened with either vehicle control or the nuclear PDL1 inhibitor, DL-2. Samples were fixed and immunofluorescence microscopy performed on these cells with primary antibodies targeting CSV, PDL1-PTM1 (acetylated nuclear PDL1), ALDH1A1 and ABCB5. Graph represents the CFI values for CSV, NFI for PDL1- PTM1, ALDH1A1 and FI for ABCB5 measured using the ASI Digital pathology automated system to select the nucleus minus background (n≥40 cells/sample/5 patients a group).
# PD-L1-Me3 (PD-L1-PTM2) = assay: High resolution digital pathology of PD-L1-Me3 (PDL1-PTM2) localisation; assay type: cell-based, human; conditions: for cytoplasmic expression of PDL1-PTM2 (PDL1-Me3): MDA-MB-231, vs vehicle control
# Experimental: To examine the signature of CD8, CSV, EGFR, ABCB5, FOXQ1, commercial PD-L1-28-8, nuclear PD-L1, cytoplasmic PDL1 in MDA-MB-231 TNBC cells/TNBC brain cancer clone cells (untreated or treated with bicyclic inhibitors targeting nuclear PD-L1-PTM1). MDA-MB-231/MDA-MB-231-Br cells were permeabilised by incubating with 0.5% Triton X-100 for 15 min, blocked with 1% BSA in PBS and were probed with either CSV (Mouse host), CD8 (mouse host), EGFR (Rabbit host), ABCB5 (Goat Host), ALDH1A (Rabbit Host), NODAL (Goat Host), nuclear PDL1 (rabbit host), cytoplasmic PD-L1 (rabbit host) visualized with a donkey anti-rabbit AF 488, anti-mouse AF 568, donkey anti-goat 647. Cover slips were mounted on glass microscope slides with ProLong Glass Antifade reagent (Life Technologies). Protein targets were localised by digital pathology laser scanning microscopy. Single 0.5 μm sections were obtained using a ASI Digital pathology microscope using 100× oil immersion lens running ASI software. The final image was obtained by averaging four sequential images of the same section. Digital images were analyzed using automated ASI software (Applied Spectral Imaging, Carlsbad, CA) to determine the distribution and intensities automatically with automatic thresholding and background correction of the average nuclear fluorescence intensity (NFI), allowing for the specific targeting of expression of proteins of interest. Digital images were also analysed using ImageJ software (ImageJ, NIH, Bethesda, MD, USA) to determine the total cell fluorescence or cell surface only fluorescence for non-permeabilised cells. Digital images were analysed using ImageJ software (ImageJ, NIH, Bethesda, MD, USA) to determine either the Total Nuclear Fluorescent Intensity (TNFI), the Total Cytoplasmic Fluorescent Intensity (TCFI). ImageJ software with automatic thresholding and manual selection of regions of interest (ROIs) specific for cell nuclei was used to calculate the Pearson's co-efficient correlation (PCC) for each pair of antibodies. PCC values range from: −1=inverse of co-localisation, 0=no co-localisation, +1=perfect co-localisation. The Mann-Whitney nonparametric test (GraphPad Prism, GraphPad Software, San Diego, CA) was used to determine significant differences between datasets.
# All breast cancer cell lines used were sourced from ATCC. MDA-MB-231 or MDB-MB-231-Br cell lines were maintained and cultured in DMEM (Invitrogen) supplemented with 10% FBS, 2 mM L-glutamine, and 1% PSN. MCF-7 cells were stimulated with 1.29 ng/mL phorbol 12-myristate 13-acetate (PMA) (Sigma-Aldrich) or 5 ng/ml recombinant TGF-β1 (R&D Systems) for 60 hours. For inhibitor studies, 2×10^5 cells were seeded in 2 mL complete media in 6 well plates and incubated overnight at 37° C./5% CO2. Cells were treated with PD-L1 bicyclic peptides targeting the nuclear axis PD-L1, HDAC2i or vehicle control. For qPCR analysis, at each time point, adherent cells were trypsinized, washed and cell pellets stored at −80° C. until further processing. For microscopy studies, 4×10^4 cells were seeded on coverslips and treated with inhibitors as described above. At each timepoint, coverslips were washed, fixed with 3.7% formaldehyde (Sigma) and stored at 4° C. until processing. […]
# MDA-MB-231 were permeabilized and treated with either vehicle control or, DL-2 (current stock), or linear PDL1 (PDL1-L1). […] Significant differences are calculated as one-way ANOVA Kruskal-Wallis test comparison to vehicle control. […]
# [2] = tested on: 4T1 TNBC metastatic cancer cells; assay: 4T1 model of metastatic breast cancer in mice; assay type: in vivo, mouse
# Experimental: 4T1 Gold standard immunotherapy resistant mouse model mice obtained from the ARC, Perth and mice were inoculated with 4T1 TNBC metastatic cancer cells. DL-2 is supplied lyophilised in glass vials and was reconstituted using sodium chloride injection BP (0.9% saline) to make a stock solution of 10 mg/mL using a needle/syringe, DL-2 was mixed by inversion. Animals were then injected by intraperitoneal injection at 10, 20 or 30 mg/kg daily and rested over the weekend. Mice were monitored over time for body weight and tumour volume.
# 4T1 Gold standard immunotherapy resistant mouse model mice obtained from the ARC, Perth and mice were inoculated with 4T1 TNBC metastatic cancer cells. DL-2 or DL-2-D is supplied lyophilised in glass vials was reconstituted using sodium chloride injection BP (0.9% saline) to make a stock solution of 10 mg/mL using a needle/syringe, DL-2 was mixed by inversion. Animals were then injected by intraperitoneal injection and mice were monitored over time for body weight and tumour volume for DL-2 at 20 mg/kg every second day with resting over the weekend in conjunction with αPD1 or isotype control (10 mg/kg).
# DL-2-D was mixed by inversion. Animals were then injected by intraperitoneal injection and mice were monitored over time for body weight and tumour volume for DL-2-D at a concentration of 20 mg/kg every two days (identical regime to αPD1) in conjunction with αPD1 or isotype control (10 mg/kg).
# CSC = CSC inhibition (Table 10 summary); assay type: cell-based; conditions: linear peptide derivatives; change stated relative to prototype PDL1-L1
molecule,measurement,setting,value
CCCCCCCCCCCCCC(=O)NC(C)C(=O)NC1CSCc2cc3cc(c2)CSC[C@H](NC(=O)[C@H](Cc2ccccc2)NC(=O)[C@H](C(C)CC)NC(=O)[C@H](Cc2ccccc2)NC(=O)[C@H]([C@@H](C)O)NC(=O)C(CC(C)C)NC1=O)C(=O)N[C@@H](CCCNC(C)=N)C(=O)N[C@@H](CC(C)C)C(=O)N[C@@H](CCCNC(=N)N)C(=O)N[C@@H](CCCCN)C(=O)NCC(=O)N[C@@H](CCCNC(=N)N)C(=O)NC(C(=O)N[C@@H](CCSC)C(=O)NC(CCSC)C(=O)N[C@@H](CC(=O)O)C(=O)NC(C(=O)N[C@@H](CCCCN)C(=O)NC(CCCCN)C(=O)O)C(C)C)CSC3 (mixture of isomers) [DL-2],"expression of ABCB5, ALDH1A1 and PDL1-PTM1 in MICs",[1],inhibited expression
same,cytoplasmic expression of PDL1-PTM2 (PDL1-Me3),PD-L1-Me3 (PD-L1-PTM2),induce increased cytoplasmic expression
same,expression of cell surface PD-L1-Me3,PD-L1-Me3 (PD-L1-PTM2); non-permeabilized MDA-MB-231 cells,significant upregulation
same,cytoplasmic/cell surface PD-L1-Me3,PD-L1-Me3 (PD-L1-PTM2); permeabilized MDA-MB-231 cells,significantly upregulating
same,expression of nuclear PD-L1-Me3,PD-L1-Me3 (PD-L1-PTM2); permeabilized MDA-MB-231 cells,abrogating
same,body weight,[2]; DL-2 and anti-PD1 combination therapy,No change
same,primary tumour volume,"[2]; DL-2 in combination with an anti-PD1 antibody, 10 day treatment period",significantly reduces
same,"lung, liver or spleen weights",[2]; DL-2 in combination with anti-PD1,does not alter
same,body weight,[2]; DL-2 monotherapy,No change
same,"lung, liver or spleen weights",[2]; DL-2 monotherapy,does not alter
same,primary tumour volume,"[2]; DL-2 monotherapy 20 and 30 mg/kg i.p., eight day treatment period",reduces
same,tumour weight,"[2]; DL-2 monotherapy 20 and 30 mg/kg, after 8 days",significantly reduced
"LTFIFRLRKGRMMDVKK (Myristyl-LTFIFRLRKGRMMDVKK) [PDL1-L1, Myristyl- linear peptide, prototype]",cytoplasmic expression of PDL1-PTM2 (PDL1-Me3),PD-L1-Me3 (PD-L1-PTM2); listed as linear PDL1 peptide,not able to induce any increased expression; also recorded: did not induce any increased expression
same,Potency (CSC inhibition),CSC,Weak
